Measurements as given in US20250303156A1, “CONCOMITANT TREATMENT OF TTFIELDS AND HMG-CO A REDUCTASE INHIBITORS” (NOVOCURE GMBH, priority 2024, published 2025).

Test system: non small cell lung cancer (NSCLC)
Test: clinical study in non small cell lung cancer: survival with statins in addition to TTFields
Format: in vivo, human
Conditions: statin plus Docetaxel plus TTFields compared to the same statin plus Docetaxel; FIGS. 5-7
Source text: In some aspects, the materials and methods described in Leal et al. “Tumor Treating Fields therapy with standard systemic therapy versus standard systemic therapy alone in metastatic non-small-cell lung cancer following progression on or after platinum-based therapy (LUNAR): a randomised, open-label, pivotal phase 3 study” Lancet Oncol. 2023 September; 24(9):1002-1017 can be used, such methods and materials are hereby incorporated by reference in its entirety herein. The disclosed experiments were based on a clinical trial in which subjects received Docetaxel or a combination of Docetaxel and TTFields. The patients also received statins during the clinical trial. The statins were not part of the clinical trial, however, the patients were previously on statins due to the chronic condition and continued to receive statins.

Structure (SMILES) | median survival of patients
CC(C)c1c(C(=O)Nc2ccccc2)c(-c2ccccc2)c(-c2ccc(F)cc2)n1CC[C@@H](O)C[C@@H](O)CC(=O)O [Atorvastatin, atorvastatin] | increase in median survival
CC(C)c1nc(N(C)S(C)(=O)=O)nc(-c2ccc(F)cc2)c1/C=C/[C@@H](O)C[C@@H](O)CC(=O)O [Rosuvastatin, rosuvastatin] | increase in median survival
